From patent US9012489B2, “Phenyl-3-aza-bicyclo[3.1.0]hex-3-yl-methanones and the use thereof as medicament” (Boehringer Ingelheim International GmbH, priority 2011, dated 2015)

Biological target: T1, GlyT1 transporter (Homo sapiens, UniProt P48067)
T1 construct: endogenously expressing the GlyT1 transporter; host or cells: SK-N-MC human neuroblastoma cells
T1 sequence (P48067 1-706): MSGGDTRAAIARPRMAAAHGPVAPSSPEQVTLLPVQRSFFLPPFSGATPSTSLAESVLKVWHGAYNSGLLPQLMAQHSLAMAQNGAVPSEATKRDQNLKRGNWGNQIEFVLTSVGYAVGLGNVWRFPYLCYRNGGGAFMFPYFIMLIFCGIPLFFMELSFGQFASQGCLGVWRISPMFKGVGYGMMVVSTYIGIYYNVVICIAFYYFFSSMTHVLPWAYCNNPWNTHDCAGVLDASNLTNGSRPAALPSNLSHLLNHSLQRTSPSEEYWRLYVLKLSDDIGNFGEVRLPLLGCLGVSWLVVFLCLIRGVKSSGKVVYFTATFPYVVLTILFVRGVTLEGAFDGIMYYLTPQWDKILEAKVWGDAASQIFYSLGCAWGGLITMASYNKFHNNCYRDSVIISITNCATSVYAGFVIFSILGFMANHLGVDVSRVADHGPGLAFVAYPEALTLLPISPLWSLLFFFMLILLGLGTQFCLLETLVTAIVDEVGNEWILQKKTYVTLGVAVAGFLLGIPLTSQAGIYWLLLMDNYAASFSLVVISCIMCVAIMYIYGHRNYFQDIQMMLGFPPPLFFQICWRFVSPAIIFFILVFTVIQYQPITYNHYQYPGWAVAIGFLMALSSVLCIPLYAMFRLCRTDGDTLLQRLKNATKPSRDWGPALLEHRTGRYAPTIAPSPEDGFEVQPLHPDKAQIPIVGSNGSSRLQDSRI
Assay: GlyT1 assay: 3H-glycine uptake into SK-N-MC cells (Cytostar-T format)
Format: cell-based
Settings: glycine uptake in human SK-N-MC cells endogenously expressing GlyT1; 500 nM glycine, 1% DMSO, signal recorded over 60 min
Method in brief: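 Uptake slopes, measured over 60 min from the linear kinetic range, give IC50 from 8 compound concentrations, with 10 μM RG-1678 setting background. Substrate is 500 nM glycine (250 nM ³H, 250 nM unlabelled) in HBSS/5 mM alanine, 1% DMSO, after roughly 5-10 min compound preincubation. Cells: confluent SK-N-MC endogenously expressing human GlyT1.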

With `CC(C)Oc1ccc(S(C)(=O)=O)cc1C(=O)N1CC2CC2(c2noc(C(F)(F)F)n2)C1` (single isomer, unassigned) [Example 98, (2-Isopropoxy-5-methanesulfonyl-phenyl)-[1-(5-trifluoromethyl-[1,2,4]oxadiazol-3-yl)-3-aza-bicyclo[3.1.0]hex-3-yl]-methanone] as the molecule, how does the IC50 read?
Its IC50 is 1890 nM.

For `C[C@H](Oc1ccc(S(C)(=O)=O)cc1C(=O)N1CC2CC2(c2nocc2C(F)(F)F)C1)C(F)(F)F` (mixture of isomers) [Example 109, [5-Methanesulfonyl-2-(2,2,2-trifluoro-1-methyl-ethoxy)-phenyl]-[1-(4-trifluoromethyl-isoxazol-3-yl)-3-aza-bicyclo[3.1.0]hex-3-yl]-methanone], which IC50 is on record?
The IC50 was 45 nM.

How did the IC50 turn out when `C[C@@H](Oc1ccc(S(C)(=O)=O)cc1C(=O)N1CC2CC2(c2nnc(C3(C(F)(F)F)CC3)o2)C1)C(F)(F)F` (single isomer, unassigned) [Example 150, [5-Methanesulfonyl-2-(2,2,2-trifluoro-1-methyl-ethoxy)-phenyl]-{1-[5-(1-trifluoromethyl-cyclopropyl)-[1,3,4]oxadiazol-2-yl]-3-aza-bicyclo[3.1.0]hex-3-yl}-methanone] was run?
The IC50 was 232 nM.

`COC1(c2nc(C34CC3CN(C(=O)c3cc(S(C)(=O)=O)ccc3O[C@@H](C)C(F)(F)F)C4)no2)CC1` (single isomer, unassigned) [Example 117, [5-Methanesulfonyl-2-(2,2,2-trifluoro-1-methyl-ethoxy)-phenyl]-{1-[5-(1-methoxy-cyclopropyl)-[1,2,4]oxadiazol-3-yl]-3-aza-bicyclo[3.1.0]hex-3-yl}-methanone] was tested. Which IC50 did it give?
Its IC50 is 6 nM.

`C[C@H](Oc1ccc(S(C)(=O)=O)cc1C(=O)N1CC2CC2(c2cccc(C(F)(F)F)n2)C1)C(F)(F)F` (single isomer, unassigned) [Example 55, [5-Methanesulfonyl-2-(2,2,2-trifluoro-1-methyl-ethoxy)-phenyl]-[1-(6-trifluoromethyl-pyridin-2-yl)-3-aza-bicyclo[3.1.0]hex-3-yl]-methanone] was tested. Which IC50 did it give?
Its IC50 is 22 nM.

With `C[C@H](Oc1ccc(S(C)(=O)=O)cc1C(=O)N1CC2CC2(c2cccc(C(F)(F)F)n2)C1)C(F)(F)F` (single isomer, unassigned) [Example 56, [5-Methanesulfonyl-2-(2,2,2-trifluoro-1-methyl-ethoxy)-phenyl]-[1-(6-trifluoromethyl-pyridin-2-yl)-3-aza-bicyclo[3.1.0]hex-3-yl]-methanone] as the molecule, how does the IC50 read?
Its IC50 is 233 nM.

With `CCS(=O)(=O)c1ccc(O[C@@H](C)C(F)(F)F)c(C(=O)N2CC3CC3(c3nccc(C(F)(F)F)n3)C2)c1` (single isomer, unassigned) [Example 74, [5-Ethanesulfonyl-2-(2,2,2-trifluoro-1-methyl-ethoxy)-phenyl]-[1-(4-trifluoromethyl-pyrimidin-2-yl)-3-aza-bicyclo[3.1.0]hex-3-yl]-methanone] as the molecule, how does the IC50 read?
The IC50 was 4 nM.

With `C[C@@H](Oc1ccc(S(C)(=O)=O)cc1C(=O)N1CC2CC2(c2noc(C3(C(F)(F)F)CC3)n2)C1)C(F)(F)F` (single isomer, unassigned) [Example 69, [5-Methanesulfonyl-2-(2,2,2-trifluoro-1-methyl-ethoxy)-phenyl]-{1-[5-(1-trifluoromethyl-cyclopropyl)-[1,2,4]oxadiazol-3-yl]-3-aza-bicyclo[3.1.0]hex-3-yl}-methanone] as the molecule, how does the IC50 read?
The IC50 was 3 nM.

How did the IC50 turn out when `C[C@H](Oc1ccc(S(C)(=O)=O)cc1C(=O)N1CC2CC2(c2nnc(C3(C(F)(F)F)CC3)o2)C1)C(F)(F)F` (single isomer, unassigned) [Example 152, [5-Methanesulfonyl-2-(2,2,2-trifluoro-1-methyl-ethoxy)-phenyl]-{1-[5-(1-trifluoromethyl-cyclopropyl)-[1,3,4]oxadiazol-2-yl]-3-aza-bicyclo[3.1.0]hex-3-yl}-methanone] was run?
The IC50 was 10 nM.

How did the IC50 turn out when `C[C@@H](Oc1ccc(S(C)(=O)=O)cc1C(=O)N1CC2CC2(c2noc(C3(C(F)(F)F)CC3)n2)C1)C(F)(F)F` (mixture of isomers) [Example 68, [5-Methanesulfonyl-2-(2,2,2-trifluoro-1-methyl-ethoxy)-phenyl]-{1-[5-(1-trifluoromethyl-cyclopropyl)-[1,2,4]oxadiazol-3-yl]-3-aza-bicyclo[3.1.0]hex-3-yl}-methanone] was run?
The IC50 was 7 nM.

`C[C@@H](Oc1ccc(C#N)cc1C(=O)N1CC2CC2(c2noc(C(F)(F)F)n2)C1)C(F)(F)F` (mixture of isomers) [Example 91, 4-(2,2,2-Trifluoro-1-methyl-ethoxy)-3-[1-(5-trifluoromethyl-[1,2,4]oxadiazol-3-yl)-3-aza-bicyclo[3.1.0]hexane-3-carbonyl]-benzonitrile] was tested. Which IC50 did it give?
The IC50 was 112 nM.

How did the IC50 turn out when `C[C@@H](Oc1ccc(S(C)(=O)=O)cc1C(=O)N1CC2CC2(c2nccc(C(F)(F)F)n2)C1)C(F)(F)F` (single isomer, unassigned) [Example 19, [5-Methanesulfonyl-2-(2,2,2-trifluoro-1-methyl-ethoxy)-phenyl]-[1-(4-trifluoromethyl-pyrimidin-2-yl)-3-aza-bicyclo[3.1.0]hex-3-yl]-methanone] was run?
The IC50 was 5 nM.

For `C[C@H](Oc1ccc(S(C)(=O)=O)cc1C(=O)N1CC2CC2(c2cc(C(F)(F)F)on2)C1)C(F)(F)F` (mixture of isomers) [Example 46, [5-Methanesulfonyl-2-(2,2,2-trifluoro-1-methyl-ethoxy)-phenyl]-[1-(5-trifluoromethyl-isoxazol-3-yl)-3-aza-bicyclo[3.1.0]hex-3-yl]-methanone], which IC50 is on record?
Its IC50 is 29 nM.

With `C[C@@H](Oc1ccc(S(C)(=O)=O)cc1C(=O)N1CC2CC2(c2nc(C(F)(F)F)no2)C1)C(F)(F)F` (single isomer, unassigned) [Example 87, [5-Methanesulfonyl-2-(2,2,2-trifluoro-1-methyl-ethoxy)-phenyl]-[1-(3-trifluoromethyl-[1,2,4]oxadiazol-5-yl)-3-aza-bicyclo[3.1.0]hex-3-yl]-methanone] as the molecule, how does the IC50 read?
The IC50 was 2360 nM.

`CCS(=O)(=O)c1ccc(O[C@H](C)C(F)(F)F)c(C(=O)N2CC3CC3(c3nccc(C(F)(F)F)n3)C2)c1` (mixture of isomers) [Example 76, [5-Ethanesulfonyl-2-(2,2,2-trifluoro-1-methyl-ethoxy)-phenyl]-[1-(4-trifluoromethyl-pyrimidin-2-yl)-3-aza-bicyclo[3.1.0]hex-3-yl]-methanone] was tested. Which IC50 did it give?
The IC50 was 10 nM.

With `C[C@@H](Oc1ccc(S(C)(=O)=O)cc1C(=O)N1CC2CC2(c2noc(C(F)(F)F)n2)C1)C(F)(F)F` (single isomer, unassigned) [Example 5, [5-Methanesulfonyl-2-(2,2,2-trifluoro-1-methyl-ethoxy)-phenyl]-[1-(5-trifluoromethyl-[1,2,4]oxadiazol-3-yl)-3-aza-bicyclo[3.1.0]hex-3-yl]-methanone] as the molecule, how does the IC50 read?
Its IC50 is 1380 nM.

With `C[C@H](Oc1ccc(S(C)(=O)=O)cc1C(=O)N1CC2CC2(c2nnc(C3(C(F)(F)F)CC3)o2)C1)C(F)(F)F` (mixture of isomers) [Example 151, [5-Methanesulfonyl-2-(2,2,2-trifluoro-1-methyl-ethoxy)-phenyl]-{1-[5-(1-trifluoromethyl-cyclopropyl)-[1,3,4]oxadiazol-2-yl]-3-aza-bicyclo[3.1.0]hex-3-yl}-methanone] as the molecule, how does the IC50 read?
The IC50 was 10 nM.

How did the IC50 turn out when `C[C@H](Oc1ccc(S(C)(=O)=O)cc1C(=O)N1CC2CC2(c2noc(C3(C(F)(F)F)CC3)n2)C1)C(F)(F)F` (single isomer, unassigned) [Example 66, [5-Methanesulfonyl-2-(2,2,2-trifluoro-1-methyl-ethoxy)-phenyl]-{1-[5-(1-trifluoromethyl-cyclopropyl)-[1,2,4]oxadiazol-3-yl]-3-aza-bicyclo[3.1.0]hex-3-yl}-methanone] was run?
Its IC50 is 4 nM.

How did the IC50 turn out when `C[C@H](Oc1ccc(S(C)(=O)=O)cc1C(=O)N1CC2CC2(c2nccc(C(F)(F)F)n2)C1)C(F)(F)F` (single isomer, unassigned) [Example 17, [5-Methanesulfonyl-2-(2,2,2-trifluoro-1-methyl-ethoxy)-phenyl]-[1-(4-trifluoromethyl-pyrimidin-2-yl)-3-aza-bicyclo[3.1.0]hex-3-yl]-methanone] was run?
Its IC50 is 157 nM.

Which IC50 does the source give for `CC(C)Oc1ccc(S(C)(=O)=O)cc1C(=O)N1CC2CC2(c2noc(C(F)(F)F)n2)C1` (single isomer, unassigned) [Example 97, (2-Isopropoxy-5-methanesulfonyl-phenyl)-[1-(5-trifluoromethyl-[1,2,4]oxadiazol-3-yl)-3-aza-bicyclo[3.1.0]hex-3-yl]-methanone] here?
The IC50 was 8 nM.

With `C[C@@H](Oc1ccc(S(C)(=O)=O)cc1C(=O)N1CC2CC2(c2nnc(C(F)(F)F)o2)C1)C(F)(F)F` (mixture of isomers) [Example 122, [5-Methanesulfonyl-2-(2,2,2-trifluoro-1-methyl-ethoxy)-phenyl]-[1-(5-trifluoromethyl-[1,3,4]oxadiazol-2-yl)-3-aza-bicyclo[3.1.0]hex-3-yl]-methanone] as the molecule, how does the IC50 read?
Its IC50 is 21 nM.
